Tests used:
[1] = tested on: MDA-MD-231 (breast/human); assay: In vitro cytotoxicity (MTT cell survival), MDA-MD-231; type: cell-based; settings: MDA-MD-231, 96 h exposure; for IC50: Homo sapiens, mean from 3 independent experiments
Method: (§1) Cells were passaged two to three times per week. Cellular viability was examined by staining with trypan blue and only flasks where cell viability was >95% were used to determine cytotxicity.
(§2) Exponentially growing cells (1-3×10^3 cells per 100 μl) were seeded in 96-well plates and incubated for 16 h. Cells were then exposed continuously to various concentrations of compounds of Formula I in serum-supplemented medium. Cell survival was evaluated 96 h later by replacing the culture media with 150 μl fresh medium containing 10 mM 4-(2-hydroxyethyl)-1-piperazineethanesulfonic acid buffer, pH 7.4. Next, 50 μl of 2.5 mg/ml of 3-(4,5-dimethylthiazo-2-yl)-2,5-diphenyltetrazolium bromide (MTT; Sigma, St. Louis, Mo.) in phosphate buffer solution, pH 7.4, was added. After 3-4 h of incubation at 37° C., the medium and MTT was removed, and 200 μl of dimethylsulfoxide was added to dissolve the precipitate of reduced MTT followed by addition of 25 μl glycine buffer (0.1 M glycine plus 0.1 M NaCl, pH 10.5). The absorbance was determined at 570 nm with a microplate reader (BIORAD). Cell survival was estimated as % of cells treated with the vehicle alone.

[2] = tested on: HCT116 (colon/human); assay: In vitro cytotoxicity (MTT cell survival), HCT116; type: cell-based; settings: for In Vitro Cytotoxicity Data (Log M): HCT116, 96 h exposure; for IC50: Homo sapiens, HCT-116, HCT116, 96 h exposure, mean from 3 independent experiments
Method: as §1, §2

[3] = tested on: PC3 (prostate/human); assay: In vitro cytotoxicity (MTT cell survival), PC3; type: cell-based; settings: PC3, 96 h exposure; for IC50: Homo sapiens, mean from 3 independent experiments
Method: as §1, §2

[4] = tested on: A498 (renal/human); assay: In vitro cytotoxicity (MTT cell survival), A498; type: cell-based; settings: A498, 96 h exposure; for IC50: Homo sapiens, mean from 3 independent experiments
Method: as §1, §2

[5] = tested on: P388 (leukemia/mouse); assay: In vitro cytotoxicity (MTT cell survival), P388; type: cell-based; settings: P388, 96 h exposure; for IC50: Mus musculus
Method: as §1, §2

[6] = tested on: EKVX (lung/human); assay: In vitro cytotoxicity (MTT cell survival), EKVX; type: cell-based; settings: 96 h exposure; for IC50: Homo sapiens
Method: as §1, §2

[7] = tested on: B16 (melanoma/mouse); assay: In vitro cytotoxicity (MTT cell survival), B16; type: cell-based; settings: B16, 96 h exposure; for IC50: Mus musculus
Method: as §1, §2

[8] = tested on: T24 (bladder/human); assay: In vitro cytotoxicity (MTT cell survival), T24; type: cell-based; settings: T24, 96 h exposure; for IC50: Homo sapiens
Method: as §1, §2

[9] = tested on: SF-295 (glioblastoma/human); assay: In vitro cytotoxicity (MTT cell survival), SF-295; type: cell-based; settings: SF-295, 96 h exposure; for IC50: Homo sapiens
Method: as §1, §2

[10] = In vitro cytotoxicity (MTT cell survival), HRE; type: cell-based, human; settings: human, HRE normal renal cells, 96 h exposure
Method: as §1, §2

[11] = tested on: HRE (renal/normal, human); assay: In vitro cytotoxicity (MTT cell survival), HRE; type: cell-based; settings: HRE normal renal cells, 96 h exposure
Method: as §1, §2

Row | SMILES | IC50 [1] [µM] | In Vitro Cytotoxicity Data (Log M) [1] | In Vitro Cytotoxicity Data (Log M) [2] | IC50 [2] [µM] | IC50 [3] [µM] | In Vitro Cytotoxicity Data (Log M) [3] | In Vitro Cytotoxicity Data (Log M) [4] | IC50 [4] [µM] | IC50 [5] [µM] | In Vitro Cytotoxicity Data (Log M) [5] | In Vitro Cytotoxicity Data (Log M) [6] | IC50 [6] [µM] | In Vitro Cytotoxicity Data (Log M) [7] | IC50 [7] [µM] | IC50 [8] [µM] | In Vitro Cytotoxicity Data (Log M) [8] | IC50 [9] [µM] | In Vitro Cytotoxicity Data (Log M) [9] | IC50 at 96 h [10] [µM] | In Vitro Cytotoxicity Data (Log M) [11]
1 | COC(=O)C(C(C)OC)N(C)C(=O)C1(N(O)C(=O)/C=C/C=C/C=C/C=C\CNC(=O)C(C)(C)C(O)\C(C)=C/C=C\C=C\Cc2cnco2)COCO1 (stereo not shown) [Compound 1] | 12.9 | (Log −4.88 M) Log M | (Log −4.60 M) Log M | 24.8 | 20.7 | (Log −4.69 M) Log M | (Log −4.78 M) Log M | 15.6 | 6.3 | (Log −5.19 M) Log M | (Log −4.42 M) Log M | 37.4 | (Log −4.34 M) Log M | 44.8 | 30.5 | (Log −4.51 M) Log M | 27.1 | (Log −4.56 M) Log M | 8.8 | (Log −5.05 M) Log M
2 | COC(=O)C(C(C)OC)N(C)C(=O)C1(N(O)C(=O)/C=C/C=C/C=C/C=C\CNC(=O)C(C)(C)C(O)\C(C)=C/C=C\C=C\Cc2cnc(C)o2)COCO1 (stereo not shown) [Compound 2] | 13.2 | (Log −4.88 M) Log M | (Log −4.56 M) Log M | 27.5 | 20.7 | (Log −4.67 M) Log M | (Log −4.88 M) Log M | 13.1 | 8.1 | (Log −5.05 M) Log M | (Log −4.62 M) Log M | 23.9 | (Log −4.34 M) Log M | 45.5 | 18.9 | (Log −4.72 M) Log M | 17.5 | (Log −4.75 M) Log M | 20.2 | (Log −4.69 M) Log M

Reference: patent US7312339B2, “Polyene oxazoles and processes for their preparation” (Thallion Pharmaceuticals Inc., priority 2003, dated 2007)
